Test results as given in patent publication US4820834A, “Benzodiazepine analogs” (priority 1987, dated 1989).
Read-outs that look alike come from different tables or passages of the source.

Tests used:
CCK receptor (pancreas) = target: T1, CCK receptor (pancreas) (Rattus norvegicus, UniProt P30551); experiment: CCK Receptor Binding (Pancreas): inhibition of ^125 I-CCK-33 binding; parameters: species or system Male Sprague-Dawley rats
T1 construct: The whole pancreas was dissected free of fat tissue and was homogenized; from tissue; host or cells: rat pancreas membranes (Sprague-Dawley)
T1 sequence (P30551 1-444): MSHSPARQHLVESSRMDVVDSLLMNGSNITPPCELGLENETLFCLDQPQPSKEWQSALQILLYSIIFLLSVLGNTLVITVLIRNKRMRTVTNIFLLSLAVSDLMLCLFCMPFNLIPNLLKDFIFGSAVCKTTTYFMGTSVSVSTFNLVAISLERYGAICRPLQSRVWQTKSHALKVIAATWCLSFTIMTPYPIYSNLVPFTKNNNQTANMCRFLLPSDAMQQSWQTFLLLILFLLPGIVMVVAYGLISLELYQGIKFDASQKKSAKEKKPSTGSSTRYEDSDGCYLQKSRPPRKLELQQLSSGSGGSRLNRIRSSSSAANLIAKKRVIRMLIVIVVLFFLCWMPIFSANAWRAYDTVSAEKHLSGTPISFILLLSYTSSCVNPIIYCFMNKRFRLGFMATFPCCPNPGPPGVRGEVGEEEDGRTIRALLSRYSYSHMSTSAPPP
Summary of the method: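 Rat (male Sprague-Dawley) pancreatic membranes in 50 mM Tris HCl pH 7.7 with DTT, bacitracin, PMSF and o-phenanthroline; ^125I-Bolton Hunter-labelled CCK-33 as radioligand. Incubation 30 min at 37° C, separation by centrifugation, pellet gamma-counted; Scatchard analysis by diluting ^125I-CCK-33 with increasing CCK-33.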

[1] = target: T2, CCK receptor (brain, cerebral cortex) (Cavia porcellus, UniProt H0VZC5); experiment: biochemical; type: binding, Male Hartley guinea pigs
T2 construct: Cerebral cortex was dissected and used as a receptor source; from tissue; host or cells: guinea pig cerebral cortex membranes (male Hartley)
T2 sequence (H0VZC5 1-426): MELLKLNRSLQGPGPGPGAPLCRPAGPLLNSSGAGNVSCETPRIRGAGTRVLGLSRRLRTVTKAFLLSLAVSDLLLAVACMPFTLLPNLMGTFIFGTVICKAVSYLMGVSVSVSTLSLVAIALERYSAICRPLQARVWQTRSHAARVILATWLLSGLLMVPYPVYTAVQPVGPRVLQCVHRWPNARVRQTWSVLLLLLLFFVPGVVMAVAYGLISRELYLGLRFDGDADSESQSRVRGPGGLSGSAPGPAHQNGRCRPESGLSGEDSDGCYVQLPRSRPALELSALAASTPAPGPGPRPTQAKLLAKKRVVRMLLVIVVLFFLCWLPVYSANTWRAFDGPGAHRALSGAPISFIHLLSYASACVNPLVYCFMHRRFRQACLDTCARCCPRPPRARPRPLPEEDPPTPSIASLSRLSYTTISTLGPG
Summary of the method: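 Guinea pig cerebral cortex homogenate as receptor source, with radiolabeled CCK-33 in HEPES buffer containing MgCl2, bacitracin, EGTA and 0.4% BSA. Incubation 2 h at 25°C; bound ligand pelleted by centrifugation and gamma-counted.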

[2] = target: T3, Gastrin receptor (gastric glands) (Cavia porcellus, UniProt H0VZC5); experiment: Gastrin Receptor Binding in Guinea Pig Gastric Glands; parameters: species or system guinea pig (male Hartley)
T3 construct: The washed guinea pig gastric glands prepared as above were resuspended; from tissue; host or cells: guinea pig gastric mucosal glands (male Hartley)
T3 sequence (H0VZC5 1-426): T2 sequence (H0VZC5 1-426)

[3] = rat pancreas membranes, ^125 I-CCK-33, 37° C., 30 minutes; read-out: IC50 ^125 I-CCK Pancreas
[4] = IC50 ^125 I-CCK Brain, guinea pig cerebral cortex, ^125 I-CCK-33, 25° C., 2 hours
[5] = IC50 ^125 I-Gastrin Gastric Glands, 25° C., 30 minutes
[6] = IC50 ^125 I-CCK Pancreas, rat pancreas membranes, ^125 I-CCK-33, 37° C., 30 minutes
[7] = guinea pig cerebral cortex, ^125 I-CCK-33, 25° C., 2 hours; read-out: IC50 ^125 I-CCK Brain
[8] = ^125 I-gastrin, 25° C., 30 minutes, read-out: IC50 ^125 I-Gastrin Gastric Glands

Row | SMILES | IC50 (CCK receptor (pancreas); [3]) [nM] | IC50 [1, 4] [nM] | IC50 [2, 5] [nM] | IC50 (CCK receptor (pancreas); [6]) [nM] | IC50 [1, 7] [nM] | IC50 [2, 8] [nM] | further results
1 | CN1C(=O)C(NC(=O)Nc2ccccc2[N+](=O)[O-])N=C(c2ccccc2)c2ccccc21 (stereo not drawn) [Example 270, N-(2,3-Dihydro-1-methyl-2-oxo-5-phenyl-1H-1,4-benzodiazepin-3-yl)-N'-(2-nitrophenyl)-urea] | 3 | 1200 | 500 |  |  |  | 
2 | CN1C(=O)[C@@H](NC(=O)Nc2ccccc2Cl)N=C(c2ccccc2)c2ccccc21 [Example 276, (S)-N-(2,3-Dihydro-1-methyl-2-oxo-5-phenyl-1H-1,4-benzodiazepin-3-yl)-N'-(2-chlorophenyl)-urea] |  |  |  | 0.39 | 280 | 240 | 
3 | CN1C(=O)C(NC(=S)Nc2ccccc2)N=C(c2ccccc2)c2ccccc21 (stereo not drawn) [Example 277, N-(2,3-Dihydro-1-methyl-2-oxo-5-phenyl-1H-1,4-benzodiazepin-3-yl)-N'-phenylthiourea] |  |  |  | 18 | 860 | 2600 | 
4 | CN1C(=O)C(C(O)c2cn(C)c3ccccc23)N=C(c2ccccc2)c2ccccc21 (racemic) [Example 50b, 1,3-Dihydro-3(RS)-[1-hydroxy-1-[3-(1-methylindolyl)]]-methyl-1-methyl-5-phenyl-2H-1,4-benzodiazepin-2-one] |  |  |  | 100000 | 40000 | 61000 | 
5 | COc1cccc(NC(=O)N[C@@H]2N=C(c3ccccc3)c3ccccc3N(C)C2=O)c1 [Example 266, (R)-N-(2,3-Dihydro-1-methyl-2-oxo-5-phenyl-1H-1,4-benzodiazepin-3-yl)-N'-(3-methoxyphenyl)-urea] | 600 | 2.2 |  |  |  | 1.3 | 
6 | O=C(N[C@H]1N=C(c2ccccc2)c2ccccc2NC1=O)c1cc2ccccc2[nH]1 [Example 187, 3(S)-(2-Indolecarbonyl)amino-1,3-dihydro-5-phenyl-2H-1,4,-benzodiazepin-2-one] |  | 1300 | 5300 | 3 |  |  | 
7 | CCCCNC(=O)CN1C(=O)C(NC(=O)OCc2ccccc2)N=C(c2ccccc2)c2ccccc21 (stereo not drawn) [Example 213, {2,3-Dihydro-2-oxo-1-[2-oxo-2-(butylamino)ethyl]-5-phenyl-1H-1,4-benzodiazepin-3-yl}-carbamic acid phenylmethyl ester] |  |  |  | 2100 | 380 | 280 | 
8 | CN1C(=O)[C@H](NC(=O)c2ccccc2Cl)N=C(c2ccccc2F)c2ccccc21 [Example 172, 3(R)-(+)-3-(2-Chlorobenzoylamino)-1,3-dihydro-5-(2-fluorophenyl)-1-methyl-2H-1,4-benzodiazepin-2-one] | 3400 | 16000 | 3700 |  |  |  | 
9 | Cc1ccc(S(=O)(=O)NC2N=C(c3ccccc3F)c3ccccc3NC2=O)cc1 (racemic) [Example 112, 1,3-Dihydro-3-(RS)-(4-methylphenylsulfonyl)amino-5-(2-fluorophenyl)-2H-1,4-benzodiazepin-2-one] |  |  |  | 24000 | > 50000 | > 10000 | 
10 | CN1C(=O)C(NC(=O)Nc2cccc(F)c2)N=C(c2ccccc2)c2ccccc21 (stereo not drawn) [Example 271, N-(2,3-Dihydro-1-methyl-2-oxo-5-phenyl-1H-1,4-benzodiazepin-3-yl)-N'-(3-fluorophenyl)-urea] | 10 | 54 | 10 |  |  |  | 
11 | Cc1ccc(NC(=O)NC2N=C(c3ccccc3)c3ccccc3N(C)C2=O)cc1 (stereo not drawn) [Example 252, N-(2,3-Dihydro-1-methyl-2-oxo-5-phenyl-1H-1,4-benzodiazepin-3-yl)-N'-(4-methylphenyl)-urea] | 57 | 6 | 3.5 |  |  |  | 
12 | CN1C(=O)[C@@H](NC(=O)c2ccc(C(F)(F)F)cc2)N=C(c2ccccc2)c2ccccc21 [Example 203, (S)-N-(2,3-Dihydro-1-methyl-2-oxo-5-phenyl-1H-1,4-benzodiazepin-3-yl)-4-(trifluoromethyl)-benzamide] | 1.3 | 4600 |  |  |  | 6200 | 
13 | O=C(NC1N=C(c2ccccc2F)c2ccccc2NC1=O)c1ccc(Cl)cc1 (racemic) [Example 111, 1,3-Dihydro-3-(RS)-(4-chlorophenylcarbonyl)amino-5-(2-fluorophenyl)-2H-1,4-benzodiazepin-2-one] |  | 40000 | 8400 | 7 |  |  | 
14 | CN1C(=O)[C@H](NC(=O)c2cc3ccccc3[nH]2)N=C(c2ccccc2F)c2ccccc21 [Example 89, 3(R)-(-)-1,3-Dihydro-5-(2-fluorophenyl)-3-(2-indole-carbonylamino)-1-methyl-2H-1,4-benzodiazepin-2-one] | 19 | 1100 |  |  |  | 240 | 
15 | O=C(O)CN1C(=O)[C@@H](Cc2c[nH]c3ccccc23)N=C(c2ccccc2F)c2ccccc21 [Example 43] |  |  |  |  |  |  | IC50 (CCK receptor (pancreas); read-out: IC50 ^125 I-CCK Pancreas; rat pancreas membranes, ^125 I-CCK-33, 37° C., 30 minutes): 300 nM; IC50 ([1]; read-out: IC50 ^125 I-CCK Brain; guinea pig cerebral cortex, ^125 I-CCK-33, 25° C., 2 hours): 23000 nM; IC50 ([2]; read-out: IC50 ^125 I-Gastrin Gastric Glands, 25° C., 30 minutes): 5000 nM
16 | CC(C)CCN1C(=O)[C@@H](Cc2c[nH]c3ccccc23)N=C(c2ccccc2F)c2ccccc21 [Example 39, 1,3-Dihydro-5-(2-fluorophenyl)-3(R)-(3'-indolyl) methyl-1-(3-methylbutyl)-2H-1,4-benzodiazepine-2-one] |  | 30000 | 23000 | 100000 |  |  | 
17 | COc1cccc(CC(=O)N[C@@H]2N=C(c3ccccc3)c3ccccc3N(C)C2=O)c1 [Example 269, (R)-N-(2,3-Dihydro-1-methyl-2-oxo-5-phenyl-1H-1,4-benzodiazepin-3-yl)-3-methoxybenzenacetamide] |  |  |  | 45000 | 690 | 450 | 
18 | CN1C(=O)C(NC(=O)Nc2cccc(Br)c2)N=C(c2ccccc2)c2ccccc21 (stereo not drawn) [Example 272, N-(3-Bromophenyl)-N'-(2,3-dihydro-1-methyl-2-oxo-5-phenyl-1H-1,4-benzodiazepin-3-yl)-urea] | 4.4 | 5 | 2.8 |  |  |  | 
19 | CC1=C(C(=O)NC2N=C(c3ccccc3F)c3ccccc3NC2=O)Cc2ccccc21 (racemic) [Example 115, 1,3-Dihydro-3-(RS)-(3'-methylindenyl-2-carbonyl)amino-5-(2-fluorophenyl)-2H-1,4-benzodiazepin-2-one] |  |  |  | 22 | 3500 | > 10000 | 
20 | CN1C(=O)C(NC(=O)Nc2cccc([N+](=O)[O-])c2)N=C(c2ccccc2)c2ccccc21 (stereo not drawn) [Example 264, N-(2,3-Dihydro-1-methyl-2-oxo-5-phenyl-1H-1,4-benzodiazepin-3-yl)-N'-(3-nitrophenyl)-urea] | 34 | 11 | 6 |  |  |  | 
21 | CCOC(=O)CN1C(=O)C(NC(=O)NC(C)C)N=C(c2ccccc2F)c2ccccc21 (stereo not drawn) [Example 205, 5-(2-Fluorophenyl)-2,5-dihydro-3-((((1-methylethyl)amino)carbonyl)amino)-2-oxo-1H-1,4-benzodiazepine-1-acetic acid ethyl ester] |  |  |  | 35000 | > 300 | 33000 | 
22 | COc1cccc(NC(=O)NC2N=C(c3ccccc3F)c3ccccc3N(C)C2=O)c1 (stereo not drawn) [Example 246, N-(5-(2-Fluorophenyl)-2,3-dihydro-1-methyl-2-oxo-1H-1,4-benzodiazepin-3-yl)-N'-(3-methoxyphenyl)-urea] |  |  |  | 1.9 | 2 | 2.4 | 
23 | Cc1ccc(C2=NC(NC(=O)c3cc4ccccc4[nH]3)C(=O)N(C)c3ccccc32)cc1 (stereo not drawn) [Example 291, 3-N-(2,3-Dihydro-1-methyl-2-oxo-5-(p-tolyl)-1H-1,4-benzodiazepin-3-yl)-1H-indole-2-carboxamide] |  |  |  | 0.08 | 380 | 710 | 
